In assay [1] the target is T1, Steroid 5-α-Reductase (Homo sapiens, UniProt P31213).
T1 construct: microsomes derived from prostate tissue of benign prostatic hypertrophy (BPH) patients; from tissue; host or cells: prostate tissue of BPH patients, microsomes
T1 sequence (P31213 1-254): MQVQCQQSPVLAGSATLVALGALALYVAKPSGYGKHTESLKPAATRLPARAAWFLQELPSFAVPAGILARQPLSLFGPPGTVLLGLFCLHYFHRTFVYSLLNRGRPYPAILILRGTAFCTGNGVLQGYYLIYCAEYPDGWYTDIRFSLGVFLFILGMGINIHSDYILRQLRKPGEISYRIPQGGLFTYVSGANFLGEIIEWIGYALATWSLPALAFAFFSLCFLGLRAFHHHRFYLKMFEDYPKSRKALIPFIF
Nature of the assay: Steroid 5-α-reductase in vitro assay, human prostate microsomes (BPH patients). Conditions: human prostatic microsomes; 100 nM [3H]-testosterone, 1 mM NADPH, 60 minutes at 37° C. It counts as biochemical.

In assay [2] the target is Steroid 5-α-Reductase. The experiment in a line: Steroid 5-α-reductase in vitro assay, rat prostate microsomes. Format: biochemical. Conditions: rat prostatic microsomes; 100 nM [3H]-testosterone, 1 mM NADPH, 60 minutes at 37° C.; read-out: ID50 Rat.

pIC50: −log10 of the molar value. Bounds are passed on as bounds.

In patent US5543406A, “Inhibitors of 5-α-testosterone reductase” (priority 1994, dated 1996) one finds IC50 data, which are given here for 34 molecules.

With `CCN(CC)C(=O)/C=C/[C@H]1CC[C@H]2[C@@H]3CNC4=CC(=O)CC[C@]4(C)[C@H]3CC[C@]12C` [Compound 76, 17β-1-(E)-Acrylyl(N,N-diethyl)amide-6-azaandrost-4-en-3-one], the pIC50 against Steroid 5-α-Reductase [1] and at Steroid 5-α-Reductase [2] was 7.00 to 8.00 throughout. Regarding `CCN(CC)C(=O)[C@H]1CC[C@H]2[C@@H]3CN(C(C)C)C4=CC(=O)CC[C@]4(C)[C@H]3CC[C@]12C` [Compound 39, 17β-N,N-Diethylcarbamoyl-6-isopropyl-6-azaandrost-4-en-3-one], on Steroid 5-α-Reductase [1], the pIC50 was more than 8.00. With `CC(C)(C)NC(=O)[C@H]1CC[C@H]2[C@@H]3CNC4=CC(=O)C=C[C@]4(C)[C@H]3CC[C@]12C` [Compound 28, 17β-N-t-Butylcarbamoyl-6-azaandrost-1,4-dien-3-one], the pIC50 at Steroid 5-α-Reductase [1] was 7.00 to 8.00; at Steroid 5-α-Reductase [2], 6.00 to 7.00.

In turn, `C[C@]12CC[C@H]3[C@@H](CNC4=CC(=O)CC[C@@]43C)[C@@H]1CC[C@@H]2C(=O)NC(c1ccccc1)(c1ccccc1)c1ccccc1` [Compound 71, 17β-N-Triphenylmethylcarbamoyl-6-azaandrost-4-en-3-one] had a pIC50 against Steroid 5-α-Reductase [1] of more than 8.00. Regarding `CC(C)CC(=O)[C@H]1CC[C@H]2[C@@H]3CNC4=C(Br)C(=O)CC[C@]4(C)[C@H]3CC[C@]12C` [Compound 66, 17β-(1-Oxo-3-methylbutyl)-6-azaandrost-4-bromo-4-en-3-one], on Steroid 5-α-Reductase [2], the pIC50 is 7.00 to 8.00.

The molecule `CCN(CC)C(=O)[C@H]1CC[C@H]2[C@@H]3CN(CCC(=O)OC)C4=CC(=O)CC[C@]4(C)[C@H]3CC[C@]12C` [Compound 46, 17β-N,N-Diethylcarbamoyl-6-(methyl-3-propanoate)-6-azaandrost-4-en-3-one] had a pIC50 on Steroid 5-α-Reductase [1] of 6.00 to 7.00. Same read-out and setting: for `CCN(CC)C(=O)[C@H]1CC[C@H]2[C@@H]3CNC4=C(CN(C)C)C(=O)CC[C@]4(C)[C@H]3CC[C@]12C` [Compound 14, 17β-N,N-Diethylcarbamoyl-6-azaandrost-4-dimethylaminomethylene-4-en-3-one] the value was 6.00 to 7.00; for `CCN(CC)C(=O)[C@H]1CC[C@H]2[C@@H]3CN(CC4CC4)C4=CC(=O)CC[C@]4(C)[C@H]3CC[C@]12C` [Compound 41, 17β-N,N-Diethylcarbamoyl-6-methylenecyclopropyl-6-azaandrost-4-en-3-one], 6.00 to 7.00.

`CCN(CC)C(=O)[C@H]1CC[C@H]2[C@@H]3CN(CC(=O)O)C4=CC(=O)CC[C@]4(C)[C@H]3CC[C@]12C` [Compound 44, 17β-N,N-Diethylcarbamoyl-6-(2-acetic acid)-6-azaandrost-4-en-3-one] gave a pIC50 against Steroid 5-α-Reductase [1] of 6.00 to 7.00. In turn, `C[C@]12CC[C@H]3[C@@H](CNC4=CC(=O)CC[C@@]43C)[C@@H]1CC[C@@H]2C(=O)Nc1cccc2ccccc12` [Compound 72, 17β-N-1-Napthylcarbamoyl-6-azaandrost-4-en-3-one] gave a pIC50 against Steroid 5-α-Reductase [1] of more than 8.00.

In the case of `CCN(CC)C(=O)[C@H]1CC[C@H]2[C@@H]3CNC4=C(C#N)C(=O)CC[C@]4(C)[C@H]3CC[C@]12C` [Compound 13, 17β-N,N-Diethylcarbamoyl-6-azaandrost-4-cyano-4-en-3-one], the pIC50 at Steroid 5-α-Reductase [1] was 6.00 to 7.00. Consider `CCN(CC)C(=O)[C@H]1CC[C@H]2[C@@H]3CNC4=C(Cl)C(=O)CC[C@]4(C)[C@H]3CC[C@]12C` [Compound 8, 17β-N,N-Diethylcarbamoyl-6-azaandrost-4-chloro-4-en-3-one], for which the pIC50 on Steroid 5-α-Reductase [2] is 7.00 to 8.00.

`CCN(CC)C(=O)[C@H]1CC[C@H]2[C@@H]3CN(CCOC)C4=CC(=O)CC[C@]4(C)[C@H]3CC[C@]12C` [Compound 54, 17β-N,N-Diethylcarbamoyl-6-(2-methoxyethyl)-6-azaandrost-4-en-3-one] had a pIC50 on Steroid 5-α-Reductase [1] of 6.00 to 7.00. The same measure, in the same setting: with `CCN(CC)C(=O)[C@H]1CC[C@H]2[C@@H]3CN(CC(C)C)C4=CC(=O)CC[C@]4(C)[C@H]3CC[C@]12C` [Compound 40, 17β-N,N-Diethylcarbamoyl-6-isobutyl-6-azaandrost-4-en-3-one] the figure was 6.00 to 7.00. At Steroid 5-α-Reductase [1], `C=CCN1C[C@H]2[C@@H]3CC[C@H](C(=O)N(CC)CC)[C@@]3(C)CC[C@@H]2[C@@]2(C)CCC(=O)C=C12` [Compound 42, 17β-N,N-Diethylcarbamoyl-6-allyl-6-azaandrost-4-en-3-one] had a pIC50 of 6.00 to 7.00.

Regarding `CCOC(=O)CCCCCN1C[C@H]2[C@@H]3CC[C@H](C(=O)N(CC)CC)[C@@]3(C)CC[C@@H]2[C@@]2(C)CCC(=O)C=C12` [Compound 51, 17β-N,N-Diethylcarbamoyl-6-(ethyl-6-hexanoate)-6-azaandrost-4-en-3-one], the pIC50 against Steroid 5-α-Reductase [1] is 6.00 to 7.00. Same read-out and setting: for `CCN(CC)C(=O)[C@H]1CC[C@H]2[C@@H]3CNC4=C(F)C(=O)CC[C@]4(C)[C@H]3CC[C@]12C` [Compound 70, 17β-N,N-Diethylcarbamoyl-6-azaandrost-4-fluoro-4-en-3-one] the value was 7.00 to 8.00. On the same count and under the same terms, for `CCN(CC)C(=O)[C@H]1CC[C@H]2[C@@H]3CN(CCCC(=O)O)C4=CC(=O)CC[C@]4(C)[C@H]3CC[C@]12C` [Compound 47, 17β-N,N-Diethylcarbamoyl-6-(4-butanoic acid)-6-azaandrost-4-en-3-one] the value was 6.00 to 7.00; for `CN1C[C@H]2[C@@H]3CC[C@H](C(=O)NC(C)(C)C)[C@@]3(C)CC[C@@H]2[C@]2(C)C1=CC(=O)[C@@H]1C[C@@H]12` [Compound 34, 17β-N-t-Butylcarbamoyl-6-methyl-6-azaandrost-1α,2α-cyclopropyl-4-en-3-one], 7.00 to 8.00.

For the molecule `CCN(CC)C(=O)[C@H]1CC[C@H]2[C@@H]3CN(C)C4=C(C)C(=O)CC[C@]4(C)[C@H]3CC[C@]12C` [Compound 68, 17β-N,N-Diethylcarbamoyl-6-methyl-6-azaandrost-4-methyl-4-en-3-one], the pIC50 on Steroid 5-α-Reductase [2] was 6.00 to 7.00. For `CC(C)(C)NC(=O)[C@H]1CC[C@H]2[C@@H]3CNC4=CC(=O)CC[C@]4(C)[C@H]3CC[C@]12C` [Compound 3, 17β-N-t-Butylcarbamoyl-6-azaandrost-4-en-3-one], the pIC50 at Steroid 5-α-Reductase [2] was 7.00 to 8.00. Regarding `C[C@]12CC[C@H]3[C@@H](CNC4=CC(=O)C=C[C@@]43C)[C@@H]1CC[C@@H]2C(=O)NC12CC3CC(CC(C3)C1)C2` [Compound 30, 17β-N-1-Adamantylcarbamoyl-6-azaandrost-1,4-dien-3-one], the pIC50 against Steroid 5-α-Reductase [1] is more than 8.00. On to `CC1=C2N(C)C[C@H]3[C@@H]4CC[C@H](C(=O)NC(C)(C)C)[C@@]4(C)CC[C@@H]3[C@@]2(C)CCC1=O` [Compound 69, 17β-N-t-Butylcarbamoyl-6-methyl-6-azaandrost-4-methyl-4-en-3-one], for which the pIC50 at Steroid 5-α-Reductase [2] is 6.00 to 7.00.

At Steroid 5-α-Reductase [1], `CCN(CC)C(=O)[C@H]1CC[C@H]2[C@@H]3CN(CCCN4C(=O)c5ccccc5C4=O)C4=CC(=O)CC[C@]4(C)[C@H]3CC[C@]12C` [Compound 52, 17β-N,N-Diethylcarbamoyl-6-(3-phthalimidylpropyl)-6-azaandrost-4-en-3-one] had a pIC50 of 6.00 to 7.00.

The molecule `CCN(CC)C(=O)[C@H]1CC[C@H]2[C@@H]3CN(CCCCC(=O)OC)C4=CC(=O)CC[C@]4(C)[C@H]3CC[C@]12C` [Compound 49, 17β-N,N-Diethylcarbamoyl-6-(methyl-5-pentanoate)-6-azaandrost-4-en-3-one] showed a pIC50 against Steroid 5-α-Reductase [1] of 6.00 to 7.00. Still for that read-out and setting: with `CCN(CC)C(=O)[C@H]1CC[C@H]2[C@@H]3CN(CCC(=O)O)C4=CC(=O)CC[C@]4(C)[C@H]3CC[C@]12C` [Compound 45, 17β-N,N-Diethylcarbamoyl-6-(3-propanoic acid)-6-azaandrost-4-en-3-one] the figure was 6.00 to 7.00; with `CCC1=C2NC[C@H]3[C@@H]4CC[C@H](C(=O)N(CC)CC)[C@@]4(C)CC[C@@H]3[C@@]2(C)CCC1=O` [Compound 12, 17β-N,N-Diethylcarbamoyl-6-azaandrost-4-ethyl-4-en-3-one], 6.00 to 7.00.

Consider `CCN(CC)C(=O)[C@H]1CC[C@H]2[C@@H]3CNC4=C(C)C(=O)CC[C@]4(C)[C@H]3CC[C@]12C` [Compound 11, 17β-N,N-Diethylcarbamoyl-6-azaandrost-4-methyl-4-en-3-one], for which, on Steroid 5-α-Reductase [2], the pIC50 is 6.00 to 7.00. On Steroid 5-α-Reductase [1], `CCN(CC)C(=O)[C@H]1CC[C@H]2[C@@H]3CN(CCCO)C4=CC(=O)CC[C@]4(C)[C@H]3CC[C@]12C` [Compound 15, 17β-N,N-Diethylcarbamoyl-6-(3-hydroxypropyl)-6-azaandrost-4-en-3-one] had a pIC50 of 6.00 to 7.00. With `CC(C)CC(=O)[C@H]1CC[C@H]2[C@@H]3CN(C)C4=CC(=O)CC[C@]4(C)[C@H]3CC[C@]12C` [Compound 26, 17β-(1-Oxo-3-methylbutyl)-6-methyl-6-azaandrost-4-en-3-one], the pIC50 on Steroid 5-α-Reductase [2] was 7.00 to 8.00. With `CN1C[C@H]2[C@@H]3CC[C@H](C(=O)O)[C@@]3(C)CC[C@@H]2[C@@]2(C)CCC(=O)C=C12` [Compound 25, 17β-Carboxy-6-methyl-6-azaandrost-4-en-3-one], on Steroid 5-α-Reductase [1], the pIC50 was 6.00 to 7.00. The molecule `CCN(CC)C(=O)[C@H]1CC[C@H]2[C@@H]3CN(CCCCCC(=O)O)C4=CC(=O)CC[C@]4(C)[C@H]3CC[C@]12C` [Compound 50, 17β-N,N-Diethylcarbamoyl-6-(6-hexanoic acid)-6-azaandrost-4-en-3-one] gave a pIC50 at Steroid 5-α-Reductase [1] of 6.00 to 7.00.

`CCN(CC)C(=O)[C@H]1CC[C@H]2[C@@H]3CN(CCCCC(=O)O)C4=CC(=O)CC[C@]4(C)[C@H]3CC[C@]12C` [Compound 48, 17β-N,N-Diethylcarbamoyl-6-(5-pentanoic acid)-6-azaandrost-4-en-3-one] gave a pIC50 against Steroid 5-α-Reductase [1] of 6.00 to 7.00. On Steroid 5-α-Reductase [1], `CCN(CC)C(=O)[C@H]1CC[C@H]2[C@@H]3CN(CCCCN4C(=O)c5ccccc5C4=O)C4=CC(=O)CC[C@]4(C)[C@H]3CC[C@]12C` [Compound 53, 17β-N,N-Diethylcarbamoyl-6-(4-phthalimidylbutyl)-6-azaandrost-4-en-3-one] showed a pIC50 of 6.00 to 7.00.
